The values below are quoted from earlier work in US20250099443A1, “METHODS FOR SYNTHESIZING ALEUTIANAMINE AND ANALOGS THEREOF” (California Institute of Technology, priority 2023, published 2025).

Structures are written as SMILES.

In this data set the test system is human pancreatic adenocarcinoma cell line PANC-1.

Regarding `O=C1C2=C3C4=[N+](CCc5c[nH]c1c54)[C@@H]1C[C@]34S[C@@H](C=C4C=C1Br)N2` [Aleutianamine], the half-maximal inhibitory concentration (IC50) (human pancreatic adenocarcinoma cell line PANC-1, read-out: IC50 against PANC-1) is 25 nM. Further, the “potency against PANC-1 relative to gemcitabine” value (times greater than that of gemcitabine) is given as “over 160 times”.

The IC50 is the midpoint of a concentration-inhibition curve.
